Results as given in ChEMBL document CHEMBL3991601, “The target landscape of clinical kinase drugs” (Science, 2017).
pKd: −log10 of the molar value. Active and inactive are the calls of the source.

Assays:
[1] = target: Mitogen-activated protein kinase 10 (Homo sapiens, UniProt P53779)
[2] = target: T1, Glycine--tRNA ligase (Homo sapiens, UniProt P41250)
T1 sequence (P41250 whole entry): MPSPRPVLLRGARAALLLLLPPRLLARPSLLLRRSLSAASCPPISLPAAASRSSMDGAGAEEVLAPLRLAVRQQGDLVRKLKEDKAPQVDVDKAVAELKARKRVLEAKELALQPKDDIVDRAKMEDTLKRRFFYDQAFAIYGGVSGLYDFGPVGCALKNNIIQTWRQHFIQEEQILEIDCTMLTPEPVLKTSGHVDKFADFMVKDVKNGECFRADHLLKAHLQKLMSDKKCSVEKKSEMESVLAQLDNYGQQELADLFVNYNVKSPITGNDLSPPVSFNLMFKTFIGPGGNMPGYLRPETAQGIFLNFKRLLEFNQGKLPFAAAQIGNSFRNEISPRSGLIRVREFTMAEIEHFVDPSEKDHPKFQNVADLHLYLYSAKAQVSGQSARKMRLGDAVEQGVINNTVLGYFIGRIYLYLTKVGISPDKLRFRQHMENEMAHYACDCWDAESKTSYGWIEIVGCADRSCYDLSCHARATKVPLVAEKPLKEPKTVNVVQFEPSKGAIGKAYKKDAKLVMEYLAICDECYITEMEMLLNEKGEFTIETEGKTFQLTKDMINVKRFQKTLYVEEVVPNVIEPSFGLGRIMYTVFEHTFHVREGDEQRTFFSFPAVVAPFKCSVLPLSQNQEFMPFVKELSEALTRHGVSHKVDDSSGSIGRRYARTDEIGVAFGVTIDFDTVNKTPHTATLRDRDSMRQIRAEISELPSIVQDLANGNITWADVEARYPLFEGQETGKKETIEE

[3] = target: T2, Rab-like protein 3 (Homo sapiens, UniProt Q5HYI8)
T2 sequence (Q5HYI8 whole entry): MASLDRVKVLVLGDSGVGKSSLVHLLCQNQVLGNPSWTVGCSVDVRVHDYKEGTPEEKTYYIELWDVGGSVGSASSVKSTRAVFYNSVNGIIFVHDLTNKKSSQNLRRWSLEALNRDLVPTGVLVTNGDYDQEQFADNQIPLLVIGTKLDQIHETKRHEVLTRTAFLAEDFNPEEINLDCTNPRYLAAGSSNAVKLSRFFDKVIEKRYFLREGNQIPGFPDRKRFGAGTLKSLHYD

[4] = target: T3, cGMP-dependent protein kinase 1 (Homo sapiens, UniProt Q13976)
T3 sequence (Q13976 whole entry): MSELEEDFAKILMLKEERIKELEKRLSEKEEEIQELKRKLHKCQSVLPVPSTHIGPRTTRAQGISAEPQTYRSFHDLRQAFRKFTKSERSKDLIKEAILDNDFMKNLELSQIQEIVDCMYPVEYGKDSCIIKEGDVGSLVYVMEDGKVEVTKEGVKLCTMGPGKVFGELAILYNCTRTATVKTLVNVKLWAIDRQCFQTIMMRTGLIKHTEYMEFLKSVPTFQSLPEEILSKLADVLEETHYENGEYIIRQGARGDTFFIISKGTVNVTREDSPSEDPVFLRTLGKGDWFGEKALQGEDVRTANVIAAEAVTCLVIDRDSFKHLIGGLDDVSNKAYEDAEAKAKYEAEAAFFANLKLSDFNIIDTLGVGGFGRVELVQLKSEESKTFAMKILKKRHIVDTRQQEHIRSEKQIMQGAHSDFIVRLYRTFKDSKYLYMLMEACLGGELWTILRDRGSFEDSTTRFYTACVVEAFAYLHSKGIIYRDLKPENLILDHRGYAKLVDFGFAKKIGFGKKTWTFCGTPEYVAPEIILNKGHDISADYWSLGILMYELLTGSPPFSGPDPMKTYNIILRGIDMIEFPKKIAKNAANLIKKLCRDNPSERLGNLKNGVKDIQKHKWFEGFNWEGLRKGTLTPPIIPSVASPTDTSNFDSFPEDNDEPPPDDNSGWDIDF

[5] = target: Casein kinase I isoform gamma-1 (Homo sapiens, UniProt Q9HCP0)
Chain of Casein kinase I isoform gamma-1 (Q9HCP0 whole entry, canonical isoform): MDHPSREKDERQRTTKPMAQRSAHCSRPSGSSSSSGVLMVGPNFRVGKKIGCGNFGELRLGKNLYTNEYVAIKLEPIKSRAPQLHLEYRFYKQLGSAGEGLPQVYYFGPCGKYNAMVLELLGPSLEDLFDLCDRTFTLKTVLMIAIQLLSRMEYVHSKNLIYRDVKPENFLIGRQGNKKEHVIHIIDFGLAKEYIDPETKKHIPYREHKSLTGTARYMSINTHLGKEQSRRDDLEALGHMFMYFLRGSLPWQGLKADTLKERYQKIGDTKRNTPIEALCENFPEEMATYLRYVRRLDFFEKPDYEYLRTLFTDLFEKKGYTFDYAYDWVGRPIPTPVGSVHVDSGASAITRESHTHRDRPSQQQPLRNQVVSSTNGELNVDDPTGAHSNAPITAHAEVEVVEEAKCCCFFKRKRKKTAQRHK

[6] = target: Tyrosine-protein kinase Fyn (Homo sapiens, UniProt P06241)
Chain of Tyrosine-protein kinase Fyn (P06241 whole entry): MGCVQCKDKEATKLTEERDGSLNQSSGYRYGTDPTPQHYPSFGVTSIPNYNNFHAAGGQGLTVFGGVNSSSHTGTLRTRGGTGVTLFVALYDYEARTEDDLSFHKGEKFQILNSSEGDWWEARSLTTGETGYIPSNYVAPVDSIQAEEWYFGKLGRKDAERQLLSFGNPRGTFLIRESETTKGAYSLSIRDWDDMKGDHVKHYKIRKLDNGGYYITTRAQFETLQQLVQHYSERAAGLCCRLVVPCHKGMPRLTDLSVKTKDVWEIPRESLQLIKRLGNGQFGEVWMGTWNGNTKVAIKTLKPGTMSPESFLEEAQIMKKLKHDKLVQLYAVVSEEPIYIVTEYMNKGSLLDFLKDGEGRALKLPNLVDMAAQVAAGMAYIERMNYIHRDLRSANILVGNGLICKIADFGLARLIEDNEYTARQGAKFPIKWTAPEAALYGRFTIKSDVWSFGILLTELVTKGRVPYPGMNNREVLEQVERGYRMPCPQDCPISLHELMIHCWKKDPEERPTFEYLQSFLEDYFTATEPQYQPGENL

[7] = target: T4, ATP-dependent RNA helicase DDX42 (Homo sapiens, UniProt Q86XP3)
T4 sequence (Q86XP3 whole entry): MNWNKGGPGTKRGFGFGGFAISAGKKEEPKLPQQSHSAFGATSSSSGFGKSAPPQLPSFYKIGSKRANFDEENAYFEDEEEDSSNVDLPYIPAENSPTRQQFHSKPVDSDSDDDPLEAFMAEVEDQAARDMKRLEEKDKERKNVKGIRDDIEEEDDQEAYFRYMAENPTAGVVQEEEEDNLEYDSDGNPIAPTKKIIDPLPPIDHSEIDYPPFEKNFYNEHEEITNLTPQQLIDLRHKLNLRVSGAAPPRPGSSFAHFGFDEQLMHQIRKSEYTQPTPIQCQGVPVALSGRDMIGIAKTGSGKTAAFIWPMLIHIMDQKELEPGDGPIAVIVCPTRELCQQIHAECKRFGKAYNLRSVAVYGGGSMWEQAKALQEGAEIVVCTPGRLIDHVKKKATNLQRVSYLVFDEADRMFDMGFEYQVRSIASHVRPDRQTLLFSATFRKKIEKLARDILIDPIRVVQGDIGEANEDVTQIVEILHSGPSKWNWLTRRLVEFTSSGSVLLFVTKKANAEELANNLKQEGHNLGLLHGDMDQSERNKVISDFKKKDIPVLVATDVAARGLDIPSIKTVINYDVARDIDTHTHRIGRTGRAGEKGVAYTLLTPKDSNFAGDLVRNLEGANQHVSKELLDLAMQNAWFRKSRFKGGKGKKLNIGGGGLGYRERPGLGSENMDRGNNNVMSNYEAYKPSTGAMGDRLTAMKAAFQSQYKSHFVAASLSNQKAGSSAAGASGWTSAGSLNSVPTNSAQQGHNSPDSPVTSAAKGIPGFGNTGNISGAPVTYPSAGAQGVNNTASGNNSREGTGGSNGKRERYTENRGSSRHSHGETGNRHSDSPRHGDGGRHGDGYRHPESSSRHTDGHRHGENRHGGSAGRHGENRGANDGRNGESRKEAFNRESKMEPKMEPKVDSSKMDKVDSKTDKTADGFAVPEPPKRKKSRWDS

[8] = target: Ribosomal protein S6 kinase alpha-3 (Homo sapiens, UniProt P51812)
Chain of Ribosomal protein S6 kinase alpha-3 (P51812 whole entry): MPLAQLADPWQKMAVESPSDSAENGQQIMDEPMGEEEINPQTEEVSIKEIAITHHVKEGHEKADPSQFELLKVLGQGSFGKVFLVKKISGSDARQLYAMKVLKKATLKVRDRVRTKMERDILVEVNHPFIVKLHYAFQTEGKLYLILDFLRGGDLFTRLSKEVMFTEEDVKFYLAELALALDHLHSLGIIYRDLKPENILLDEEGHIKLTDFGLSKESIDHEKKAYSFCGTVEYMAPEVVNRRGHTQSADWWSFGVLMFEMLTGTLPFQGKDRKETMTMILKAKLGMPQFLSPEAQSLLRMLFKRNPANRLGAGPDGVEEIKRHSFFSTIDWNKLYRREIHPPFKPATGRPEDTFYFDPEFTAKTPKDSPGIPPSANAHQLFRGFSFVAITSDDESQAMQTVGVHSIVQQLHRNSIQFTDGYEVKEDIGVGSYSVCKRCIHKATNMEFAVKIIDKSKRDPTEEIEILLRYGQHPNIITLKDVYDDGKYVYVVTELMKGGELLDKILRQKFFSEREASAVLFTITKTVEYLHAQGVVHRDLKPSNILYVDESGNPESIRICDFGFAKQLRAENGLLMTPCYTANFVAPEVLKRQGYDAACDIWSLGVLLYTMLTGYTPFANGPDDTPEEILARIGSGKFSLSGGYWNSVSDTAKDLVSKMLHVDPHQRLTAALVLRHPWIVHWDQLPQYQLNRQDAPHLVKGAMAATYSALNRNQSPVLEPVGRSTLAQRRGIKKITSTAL

[9] = target: Activin receptor type-2B (Homo sapiens, UniProt Q13705)
Chain of Activin receptor type-2B (Q13705 whole entry): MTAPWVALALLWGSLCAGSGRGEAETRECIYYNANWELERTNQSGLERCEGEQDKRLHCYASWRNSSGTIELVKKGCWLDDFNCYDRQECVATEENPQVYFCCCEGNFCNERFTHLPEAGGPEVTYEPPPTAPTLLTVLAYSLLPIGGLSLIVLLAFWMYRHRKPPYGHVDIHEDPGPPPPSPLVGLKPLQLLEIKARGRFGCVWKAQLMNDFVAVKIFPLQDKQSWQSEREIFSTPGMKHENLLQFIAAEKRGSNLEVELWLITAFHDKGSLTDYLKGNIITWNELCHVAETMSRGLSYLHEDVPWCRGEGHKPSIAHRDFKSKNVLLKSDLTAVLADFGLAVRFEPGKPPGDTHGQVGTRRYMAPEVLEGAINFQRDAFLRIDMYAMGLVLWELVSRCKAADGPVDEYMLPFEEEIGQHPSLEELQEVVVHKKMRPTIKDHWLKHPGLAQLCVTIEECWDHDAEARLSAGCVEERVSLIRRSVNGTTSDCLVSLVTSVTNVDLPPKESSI

[10] = target: Macrophage-stimulating protein receptor (Homo sapiens, UniProt Q04912)
Chain of Macrophage-stimulating protein receptor (Q04912 25-304 limits assumed): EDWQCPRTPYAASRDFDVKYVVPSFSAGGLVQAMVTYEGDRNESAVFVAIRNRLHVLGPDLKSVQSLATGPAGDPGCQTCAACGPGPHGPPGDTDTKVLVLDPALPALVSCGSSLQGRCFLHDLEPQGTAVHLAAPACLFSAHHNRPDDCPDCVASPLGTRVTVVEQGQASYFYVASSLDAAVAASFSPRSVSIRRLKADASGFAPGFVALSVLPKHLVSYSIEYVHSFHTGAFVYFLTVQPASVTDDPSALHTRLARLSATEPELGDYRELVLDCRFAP
Chain of Macrophage-stimulating protein receptor (Q04912 310-1400 limits assumed): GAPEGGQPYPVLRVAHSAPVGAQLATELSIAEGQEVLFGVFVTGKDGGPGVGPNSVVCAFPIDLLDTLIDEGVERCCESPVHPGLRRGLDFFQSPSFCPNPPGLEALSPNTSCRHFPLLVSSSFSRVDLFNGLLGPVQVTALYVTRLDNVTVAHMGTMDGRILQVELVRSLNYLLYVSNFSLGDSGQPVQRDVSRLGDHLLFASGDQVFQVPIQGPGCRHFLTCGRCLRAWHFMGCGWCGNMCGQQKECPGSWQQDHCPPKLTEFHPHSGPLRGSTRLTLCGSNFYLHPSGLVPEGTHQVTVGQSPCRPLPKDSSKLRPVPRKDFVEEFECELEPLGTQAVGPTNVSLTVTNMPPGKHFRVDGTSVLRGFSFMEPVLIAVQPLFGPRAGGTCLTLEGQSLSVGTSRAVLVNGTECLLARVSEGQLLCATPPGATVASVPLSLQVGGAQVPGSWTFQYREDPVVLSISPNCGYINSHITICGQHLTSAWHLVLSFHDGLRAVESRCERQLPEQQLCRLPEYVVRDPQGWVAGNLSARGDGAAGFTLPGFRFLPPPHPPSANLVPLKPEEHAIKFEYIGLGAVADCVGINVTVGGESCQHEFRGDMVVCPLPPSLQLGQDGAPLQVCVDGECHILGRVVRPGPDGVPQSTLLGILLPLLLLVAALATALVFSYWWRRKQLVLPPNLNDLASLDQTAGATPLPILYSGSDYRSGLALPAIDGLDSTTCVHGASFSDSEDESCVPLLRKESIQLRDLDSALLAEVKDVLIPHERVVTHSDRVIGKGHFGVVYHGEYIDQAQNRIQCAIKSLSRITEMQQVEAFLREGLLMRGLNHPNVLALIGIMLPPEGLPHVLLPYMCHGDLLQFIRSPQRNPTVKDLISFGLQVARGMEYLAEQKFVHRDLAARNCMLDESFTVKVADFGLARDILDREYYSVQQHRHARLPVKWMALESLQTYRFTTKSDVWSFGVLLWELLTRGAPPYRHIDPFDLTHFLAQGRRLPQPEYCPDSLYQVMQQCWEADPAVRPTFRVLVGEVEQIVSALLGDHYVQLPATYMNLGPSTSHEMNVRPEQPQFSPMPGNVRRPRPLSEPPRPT

[11] = target: Epidermal growth factor receptor (Homo sapiens, UniProt P00533)
Chain of Epidermal growth factor receptor (P00533 whole entry): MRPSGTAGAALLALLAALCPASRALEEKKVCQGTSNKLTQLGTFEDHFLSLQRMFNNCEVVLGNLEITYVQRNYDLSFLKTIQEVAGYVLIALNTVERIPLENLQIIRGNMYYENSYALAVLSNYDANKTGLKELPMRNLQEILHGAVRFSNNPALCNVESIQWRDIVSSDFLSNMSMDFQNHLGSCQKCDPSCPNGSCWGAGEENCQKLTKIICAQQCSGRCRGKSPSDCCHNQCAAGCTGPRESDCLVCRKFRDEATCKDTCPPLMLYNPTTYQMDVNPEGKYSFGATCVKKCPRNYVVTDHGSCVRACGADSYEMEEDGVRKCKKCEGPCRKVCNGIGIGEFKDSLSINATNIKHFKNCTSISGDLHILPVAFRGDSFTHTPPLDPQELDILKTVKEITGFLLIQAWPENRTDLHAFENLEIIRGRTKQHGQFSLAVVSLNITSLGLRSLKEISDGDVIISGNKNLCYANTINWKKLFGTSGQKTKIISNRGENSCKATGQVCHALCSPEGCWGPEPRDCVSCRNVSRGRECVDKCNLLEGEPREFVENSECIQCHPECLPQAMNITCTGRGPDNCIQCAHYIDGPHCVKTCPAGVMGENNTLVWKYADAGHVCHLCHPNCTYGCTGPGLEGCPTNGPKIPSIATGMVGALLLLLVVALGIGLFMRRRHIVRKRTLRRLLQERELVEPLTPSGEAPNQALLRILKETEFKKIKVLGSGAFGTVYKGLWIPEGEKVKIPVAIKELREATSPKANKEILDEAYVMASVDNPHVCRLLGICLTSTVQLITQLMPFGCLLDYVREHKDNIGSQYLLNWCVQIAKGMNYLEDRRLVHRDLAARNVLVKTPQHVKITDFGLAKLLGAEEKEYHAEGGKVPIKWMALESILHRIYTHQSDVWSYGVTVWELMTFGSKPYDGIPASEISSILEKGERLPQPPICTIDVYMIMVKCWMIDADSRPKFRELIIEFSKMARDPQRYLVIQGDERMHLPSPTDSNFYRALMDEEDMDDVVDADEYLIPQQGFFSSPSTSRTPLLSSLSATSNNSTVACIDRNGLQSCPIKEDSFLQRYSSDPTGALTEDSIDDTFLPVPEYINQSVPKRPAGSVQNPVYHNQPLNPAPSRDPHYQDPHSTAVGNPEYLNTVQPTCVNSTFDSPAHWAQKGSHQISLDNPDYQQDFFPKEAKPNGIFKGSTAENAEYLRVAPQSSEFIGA
Further: in the data inactive means no Kd found up to 30 µM.

Structure (SMILES) | Kd [1] | Kd [2] | Kd [3] | Kd [4] | Kd [5] | Kd [6] | Kd [7] | Kd [8] | Kd [9] | Kd [10] | Kd [11] | pKd [4]
Cc1cnc(NC(=O)Nc2cc(Br)c(C)cc2OC[C@@H]2CNCCO2)cn1 [RABUSERTIB] | > 30 µM (inactive) | > 30 µM (inactive) | > 30 µM (inactive) | > 30 µM (inactive) | > 30 µM (inactive) | > 30 µM (inactive) | > 30 µM (inactive) | > 30 µM (inactive) | > 30 µM (inactive) | > 30 µM (inactive) | > 30 µM (inactive) | –
CO[C@H]1C[C@@H]2CC[C@@H](C)[C@@](O)(O2)C(=O)C(=O)N2CCCC[C@H]2C(=O)O[C@H]([C@H](C)C[C@@H]2CC[C@@H](OP(C)(C)=O)[C@H](OC)C2)CC(=O)[C@H](C)/C=C(\C)[C@@H](O)[C@@H](OC)C(=O)[C@H](C)C[C@H](C)/C=C/C=C/C=C/1C [RIDAFOROLIMUS] | > 30 µM (inactive) | > 30 µM (inactive) | > 30 µM (inactive) | > 30 µM (inactive) | > 30 µM (inactive) | > 30 µM (inactive) | > 30 µM (inactive) | > 30 µM (inactive) | > 30 µM (inactive) | > 30 µM (inactive) | > 30 µM (inactive) | –
N#CC1(c2ccc(NC(=O)c3cccnc3NCc3ccncc3)cc2)CCCC1 [RIVOCERANIB] | > 30 µM (inactive) | > 30 µM (inactive) | > 30 µM (inactive) | > 30 µM (inactive) | > 30 µM (inactive) | > 30 µM (inactive) | > 30 µM (inactive) | > 30 µM (inactive) | > 30 µM (inactive) | > 30 µM (inactive) | > 30 µM (inactive) | –
O=c1[nH]ccc2cc(OC3CCNCC3)ccc12 [SAR-407899 FREE BASE] | > 30 µM (inactive) | > 30 µM (inactive) | > 30 µM (inactive) | – | > 30 µM (inactive) | > 30 µM (inactive) | > 30 µM (inactive) | > 30 µM (inactive) | > 30 µM (inactive) | > 30 µM (inactive) | > 30 µM (inactive) | 8.40
Cn1cc(-c2cnn3c(N)c(Br)c([C@@H]4CCCNC4)nc23)cn1 [SCH-900776] | > 30 µM (inactive) | > 30 µM (inactive) | > 30 µM (inactive) | > 30 µM (inactive) | > 30 µM (inactive) | > 30 µM (inactive) | > 30 µM (inactive) | > 30 µM (inactive) | > 30 µM (inactive) | > 30 µM (inactive) | > 30 µM (inactive) | –
CCS(=O)(=O)c1cccc(-c2cc(C(=O)NC3CCN(C)CC3)c(C)c3[nH]c4ncc(C)cc4c23)c1 [TAK-901] | > 30 µM (inactive) | > 30 µM (inactive) | > 30 µM (inactive) | > 30 µM (inactive) | > 30 µM (inactive) | 0.095 µM (active) | > 30 µM (inactive) | 6 µM (active) | > 30 µM (inactive) | > 30 µM (inactive) | 1.47 µM (active) | –
CO[C@H]1C[C@@H]2CC[C@@H](C)[C@@](O)(O2)C(=O)C(=O)N2CCCC[C@H]2C(=O)O[C@H]([C@H](C)C[C@@H]2CC[C@@H](OC(=O)C(C)(CO)CO)[C@H](OC)C2)CC(=O)[C@H](C)/C=C(\C)[C@@H](O)[C@@H](OC)C(=O)[C@H](C)C[C@H](C)/C=C/C=C/C=C/1C [TEMSIROLIMUS] | > 30 µM (inactive) | > 30 µM (inactive) | > 30 µM (inactive) | > 30 µM (inactive) | > 30 µM (inactive) | > 30 µM (inactive) | > 30 µM (inactive) | > 30 µM (inactive) | > 30 µM (inactive) | > 30 µM (inactive) | > 30 µM (inactive) | –
COc1cc2c(Nc3ccc(Cl)c(Cl)c3F)ncnc2cc1OC[C@@H]1C[C@@H]2CN(C)C[C@@H]2C1 [TESEVATINIB] | > 30 µM (inactive) | > 30 µM (inactive) | > 30 µM (inactive) | > 30 µM (inactive) | > 30 µM (inactive) | > 30 µM (inactive) | > 30 µM (inactive) | > 30 µM (inactive) | > 30 µM (inactive) | > 30 µM (inactive) | 0.038 µM (active) | –
O=C(Cc1ccc(-c2ccc(OCCN3CCOCC3)cc2)cn1)NCc1ccccc1 [TIRBANIBULIN] | > 30 µM (inactive) | > 30 µM (inactive) | > 30 µM (inactive) | > 30 µM (inactive) | > 30 µM (inactive) | > 30 µM (inactive) | > 30 µM (inactive) | > 30 µM (inactive) | > 30 µM (inactive) | > 30 µM (inactive) | > 30 µM (inactive) | –
O=C1NC(=O)[C@@H](c2cn3c4c(cccc24)CCC3)[C@@H]1c1c[nH]c2ccccc12 [TIVANTINIB] | > 30 µM (inactive) | > 30 µM (inactive) | > 30 µM (inactive) | > 30 µM (inactive) | > 30 µM (inactive) | > 30 µM (inactive) | > 30 µM (inactive) | > 30 µM (inactive) | > 30 µM (inactive) | > 30 µM (inactive) | > 30 µM (inactive) | –
C[C@@H](NC(=O)c1ncnc(N)c1Cl)c1ncc(C(=O)Nc2cc(C(F)(F)F)c(Cl)cn2)s1 [TOVORAFENIB] | > 30 µM (inactive) | > 30 µM (inactive) | > 30 µM (inactive) | > 30 µM (inactive) | > 30 µM (inactive) | > 30 µM (inactive) | > 30 µM (inactive) | > 30 µM (inactive) | > 30 µM (inactive) | > 30 µM (inactive) | > 30 µM (inactive) | –
